pIC50: −log10 of the molar value. Values joined by “and” are separate entries in the source; they are usually repeats but may differ in a detail not shown here. Equal values may be shown once.
Molecular target: T1, human CXCR2 receptor (Homo sapiens, UniProt P25025)
T1 construct: expressed in transfected cells; host or cells: HEK293, stably transfected geneticin-resistant clones, vector RcCMV; membranes purified by sucrose gradient
T1 sequence (P25025 1-360): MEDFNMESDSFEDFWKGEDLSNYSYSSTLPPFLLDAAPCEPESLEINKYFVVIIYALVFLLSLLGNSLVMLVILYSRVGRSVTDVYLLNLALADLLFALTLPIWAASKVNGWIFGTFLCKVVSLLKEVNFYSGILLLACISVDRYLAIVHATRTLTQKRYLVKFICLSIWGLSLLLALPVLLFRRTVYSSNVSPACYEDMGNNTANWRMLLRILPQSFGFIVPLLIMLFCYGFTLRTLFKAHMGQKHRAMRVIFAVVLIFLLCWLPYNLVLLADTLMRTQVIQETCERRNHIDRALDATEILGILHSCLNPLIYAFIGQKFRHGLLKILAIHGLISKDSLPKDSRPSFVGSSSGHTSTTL
Experiment: Potency (pIC50) ligand binding assay, inhibition of [125I]IL-8 binding
Conditions: for pIC50: inhibition of specific [125I]IL-8 (0.06 nM) binding, membranes of HEK293 cells transfected with human recombinant CXCR2
Procedure: Potency (pIC50)—Ligand Binding Assay
The potency of antagonists at the human CXCR2 receptor was determined in vitro by quantifying their ability to inhibit specific binding of the CXCR2 radioligand, [^125I]interleukin-8 (IL-8), from membranes of HEK293 cells transfected with the human recombinant CXCR2 receptor.
Commercially sourced materials were obtained as follows: U-bottomed 96-well plates (3799) and 225 cm^2 vented cap culture flasks (3001) from Costar, Corning, Kent, UK. Multiscreen filter plates (0.45 μm; MAHV N45 50), vacuum manifold and pump (XF54 230 50) from Millipore, Watford, UK. N-[2-hydroxyethyl]piperazine-N′-[2ethanesulphonic acid] (HEPES; H-3375), ethylene diamine-tetraacetic acid (EDTA; E1644), magnesium chloride (M-9272), gelatin (G9382), dithiothreitol (DTT; D06052), sodium chloride (S3160/63), sodium hydroxide (B6506), bacitracin (B0125), inactivated foetal calf serum (FCS; CR0848) and DMSO Fluka Chemika (41648) from Sigma, Poole, UK. MicroScint-O (6013611) Packard BioScience, Pangboume, UK. Complete protease inhibitor cocktail tablets (1836145) from Boehringer s Mannheim, GmbH, Germany. Human recombinant [^125I]IL-8 74 TBq/mmol, 0.712 MBq/ml (IM249) from Amersham, Horsham UK. All other tissue culture reagents were purchased from Invitrogen, Paisley, Scotland, UK. All other chemical reagents were analytical grade from Fisher Scientific, Loughborough, UK
HEPES-buffered salt solution pH 7.4 containing HEPES (10 mM), potassium chloride (2.7 mM), sodium chloride (137 mM), potassium hydrogen phosphate (0.4 mM), calcium chloride (1.8 mM), magnesium chloride (1 mM), gelatin (0.1% (w/v)) and bacitracin (100 μg/ml).
HEPES-buffered Tyrode's solution pH 7.4 containing HEPES (10 mM), potassium chloride (2.7 mM), sodium chloride (137 mM), potassium hydrogen phosphate (0.4 mM), glucose (11 mM).
Hypotonic buffer: 3:1 mix of water: HEPES-buffered Tyrode's solution.
HEK293 cells were transfected with human CXCR2 (EMBL L19593) cDNA, previously cloned into the eukaryotic expression vector RcCMV. Cloned cell-lines were generated from stably-transfected geneticin-resistant populations. Cells were routinely grown to approximately 80% confluence in DMEM medium containing 10% (v/v) foetal calf serum and glutamine (2 mM) in a humidified incubator at 37° C., 5% CO2. Cells were harvested from flasks using Accutase™ at 37° C. for 3 to 5 minutes and resuspended on ice in hypotonic buffer at a density of 2×10^7 cells/mL. Membranes were prepared on ice by homogenisaton using a polytron tissue homogenizer set at 22000 rpm. The membrane fraction was purified by sucrose gradient centrifugation where homogenised cells were layered onto 41% (w/v) sucrose solution then centrifuged at 140000 g for 1 hour at 4° C. The membrane fraction was harvested at the interface, diluted 4-fold with HEPES-buffered Tyrode's solution and centrifuged at 100000 g for 20 minutes at 4° C. The membrane pellet was re-suspended at 1×10^8 cell equivalents/mL in HEPES-buffered Tyrode's solution and subsequently stored in aliquots at −80° C. All buffers used for membrane preparation and storage were made in the presence of 1 mM DTT and Complete Protease Inhibitor™ cocktail tablets, made up to manufacturers instructions.
Assays were performed in HEPES-buffered salt solution in 96-well plates. [^125I]IL-8 was used at a final concentration of 0.06 nM, pre-diluted from a 9.6 nM stock. The final DMSO concentration in the assay was 1% (v/v). Test compounds were prepared by serial dilution in DMSO followed by a ten-fold dilution into HEPES-buffered salt solution to give a working solution containing compound and 10% DMSO. The control for total binding (B0) of [^125I]IL-8 was determined in the absence of compound. The control for non-specific binding (NSB) was determined by measuring [^125I]IL-8 binding in the presence of (1R)-5-[[(3 -chloro-2-fluorophenyl)methyl]thio]-7-[[2-hydroxy-1-methylethyl]amino]thiazolo[4,5-d]pyrimidin-2(3H)-one dihydrate, sodium salt at 1 μM final concentration. […]

**Q.** C[C@@H](Nc1cc(NS(=O)(=O)N2CCC2)nc(SCc2cccc(F)c2F)n1)[C@@H](O)CO [Example 1, N-(2-[(2,3-difluorobenzyl)thio]-6-{[(1R,2R)-2,3-dihydroxy-1-methylpropyl]amino}pyrimidin-4-yl)azetidine-1-sulfonamide] was tested. Which pIC50 did it give?
**A.** Its pIC50 is 8.20 and > 8.00.

**Q.** What does the source list for CS(=O)(=O)Nc1cc(NC(CO)CO)nc(SCc2ccccc2)n1 [Example 21]?
**A.** pIC50: 5.60; fold less potent than the compound of Formula (1) (potency ratio from pIC50): 398 fold; fold less potent than the compounds of Examples 39-42 (potency ratio from pIC50): 316-1000 fold

**Q.** Cc1cccc(CSc2nc(N[C@H](C)CO)cc(NS(C)(=O)=O)n2)c1F [Example 39] was tested. Which pIC50 did it give?
**A.** Its pIC50 is 8.40.

**Q.** Cc1cccc(CSc2nc(N[C@H](C)CO)cc(NS(=O)(=O)N3CCC3)n2)c1F [Example 40] was tested. Which pIC50 did it give?
**A.** The pIC50 was 8.60.

**Q.** Cc1ccc(CSc2nc(N[C@H](C)CO)cc(NS(=O)(=O)N3CCC3)n2)c(F)c1C [Example 41] was tested. Which pIC50 did it give?
**A.** The pIC50 was 8.50.

**Q.** With Cc1ccc(CSc2nc(N[C@H](C)CO)cc(NS(=O)(=O)N3CCC3)n2)c(F)c1C [Example 42] as the compound, how does the pIC50 read?
**A.** Its pIC50 is 8.10.
